Values joined by “and” are separate entries in the source; they are usually repeats but may differ in a detail not shown here. Identical values can stand only once.
Experiments:
Assay in all cases: radiometric filter-binding kinase assay, Kinase HotSpot
Conditions in all cases: compound 0.5 µM; ATP 10 µM
[1] = target: JAK1 JH1 catalytic (human) (UniProt P23458)
[2] = target: DYRK2 (human) (UniProt Q92630)
[3] = target: MAPK8 (human) (UniProt P45983)
[4] = target: SRC (human) (UniProt P12931)
[5] = target: CAMK2B (human) (UniProt Q13554)
[6] = target: MAPK3 (human) (UniProt P27361)
[7] = target: PASK (human) (UniProt Q96RG2)
[8] = target: PRKCZ (human) (UniProt Q05513)
[9] = target: PRKG1 (human) (UniProt Q13976)
[10] = target: ROS1 (human) (UniProt P08922)
[11] = target: EPHA8 (human) (UniProt P29322)
[12] = target: PRKCE (human) (UniProt Q02156)
[13] = target: RPS6KA1 KD1 KD2 (human) (UniProt Q15418)
[14] = target: MARK4 (human) (UniProt Q96L34)
[15] = target: CSNK1A1 (human) (UniProt P48729)
[16] = target: PRKCG (human) (UniProt P05129)
[17] = target: ITK (human) (UniProt Q08881)
[18] = target: STK25 (human) (UniProt O00506)
[19] = target: INSRR (human) (UniProt P14616)
[20] = target: TYRO3 (human) (UniProt Q06418)
[21] = target: CLK4 (human) (UniProt Q9HAZ1)
[22] = target: RPS6KA2 KD1 KD2 (human) (UniProt Q15349)
[23] = target: EGFR (human) (UniProt P00533)
[24] = target: CSNK1G3 (human) (UniProt Q9Y6M4)
[25] = target: DSTYK (human) (UniProt Q6XUX3)
[26] = target: NUAK2 (human) (UniProt Q9H093)
[27] = target: TAOK1 (human) (UniProt Q7L7X3)
[28] = target: PDGFRB (human) (UniProt P09619)
[29] = target: CHEK1 (human) (UniProt O14757)
[30] = target: ABL1 (human) (UniProt P00519)
[31] = target: CDK3 CCNE1 (human) (UniProt Q00526+P24864)
[32] = target: CSNK2A2 (human) (UniProt P19784)
[33] = target: PKN1 (human) (UniProt Q16512)
[34] = target: BRAF (human) (UniProt P15056)
[35] = test system: ARAF (human), P10398 [Y301D/Y302D]

Chain of PRKG1 (human) (Q13976 whole entry, looked up): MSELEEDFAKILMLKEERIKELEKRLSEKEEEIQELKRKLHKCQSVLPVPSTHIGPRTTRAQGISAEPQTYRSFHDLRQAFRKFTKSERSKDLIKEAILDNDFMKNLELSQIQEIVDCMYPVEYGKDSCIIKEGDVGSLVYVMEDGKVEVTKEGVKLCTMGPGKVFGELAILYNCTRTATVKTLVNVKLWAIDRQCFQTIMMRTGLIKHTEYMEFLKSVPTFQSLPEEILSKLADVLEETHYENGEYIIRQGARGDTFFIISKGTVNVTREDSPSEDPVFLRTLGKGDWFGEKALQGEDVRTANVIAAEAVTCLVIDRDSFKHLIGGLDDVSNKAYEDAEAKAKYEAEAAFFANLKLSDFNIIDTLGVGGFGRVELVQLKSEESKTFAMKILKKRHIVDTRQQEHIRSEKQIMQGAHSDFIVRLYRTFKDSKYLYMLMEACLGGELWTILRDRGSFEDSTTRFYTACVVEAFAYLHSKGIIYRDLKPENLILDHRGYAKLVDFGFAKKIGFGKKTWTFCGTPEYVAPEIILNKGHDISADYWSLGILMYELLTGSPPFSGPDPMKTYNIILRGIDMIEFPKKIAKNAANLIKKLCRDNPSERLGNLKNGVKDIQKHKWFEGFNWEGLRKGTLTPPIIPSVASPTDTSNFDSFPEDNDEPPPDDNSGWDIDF
Chain of RPS6KA1 KD1 KD2 (human) (Q15418 whole entry, looked up): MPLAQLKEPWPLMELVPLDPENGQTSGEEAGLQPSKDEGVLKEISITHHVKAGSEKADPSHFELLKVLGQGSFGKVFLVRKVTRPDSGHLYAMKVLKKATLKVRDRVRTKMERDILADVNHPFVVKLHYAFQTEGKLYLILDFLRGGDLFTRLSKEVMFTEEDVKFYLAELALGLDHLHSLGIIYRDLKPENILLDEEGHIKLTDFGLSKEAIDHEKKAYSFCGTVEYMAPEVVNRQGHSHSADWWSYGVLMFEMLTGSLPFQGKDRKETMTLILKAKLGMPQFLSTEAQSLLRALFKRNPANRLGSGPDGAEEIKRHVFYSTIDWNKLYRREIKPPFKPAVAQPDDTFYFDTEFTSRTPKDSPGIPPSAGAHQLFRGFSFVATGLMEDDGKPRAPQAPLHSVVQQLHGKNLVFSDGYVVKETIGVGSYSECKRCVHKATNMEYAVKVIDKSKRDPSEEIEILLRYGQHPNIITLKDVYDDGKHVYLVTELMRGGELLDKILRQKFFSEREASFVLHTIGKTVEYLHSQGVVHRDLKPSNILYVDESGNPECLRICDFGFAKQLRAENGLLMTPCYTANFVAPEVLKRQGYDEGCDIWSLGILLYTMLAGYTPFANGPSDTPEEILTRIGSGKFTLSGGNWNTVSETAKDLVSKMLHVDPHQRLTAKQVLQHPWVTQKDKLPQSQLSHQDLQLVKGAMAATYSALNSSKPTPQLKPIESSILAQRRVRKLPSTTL
Chain of EGFR (human) (P00533 whole entry, looked up): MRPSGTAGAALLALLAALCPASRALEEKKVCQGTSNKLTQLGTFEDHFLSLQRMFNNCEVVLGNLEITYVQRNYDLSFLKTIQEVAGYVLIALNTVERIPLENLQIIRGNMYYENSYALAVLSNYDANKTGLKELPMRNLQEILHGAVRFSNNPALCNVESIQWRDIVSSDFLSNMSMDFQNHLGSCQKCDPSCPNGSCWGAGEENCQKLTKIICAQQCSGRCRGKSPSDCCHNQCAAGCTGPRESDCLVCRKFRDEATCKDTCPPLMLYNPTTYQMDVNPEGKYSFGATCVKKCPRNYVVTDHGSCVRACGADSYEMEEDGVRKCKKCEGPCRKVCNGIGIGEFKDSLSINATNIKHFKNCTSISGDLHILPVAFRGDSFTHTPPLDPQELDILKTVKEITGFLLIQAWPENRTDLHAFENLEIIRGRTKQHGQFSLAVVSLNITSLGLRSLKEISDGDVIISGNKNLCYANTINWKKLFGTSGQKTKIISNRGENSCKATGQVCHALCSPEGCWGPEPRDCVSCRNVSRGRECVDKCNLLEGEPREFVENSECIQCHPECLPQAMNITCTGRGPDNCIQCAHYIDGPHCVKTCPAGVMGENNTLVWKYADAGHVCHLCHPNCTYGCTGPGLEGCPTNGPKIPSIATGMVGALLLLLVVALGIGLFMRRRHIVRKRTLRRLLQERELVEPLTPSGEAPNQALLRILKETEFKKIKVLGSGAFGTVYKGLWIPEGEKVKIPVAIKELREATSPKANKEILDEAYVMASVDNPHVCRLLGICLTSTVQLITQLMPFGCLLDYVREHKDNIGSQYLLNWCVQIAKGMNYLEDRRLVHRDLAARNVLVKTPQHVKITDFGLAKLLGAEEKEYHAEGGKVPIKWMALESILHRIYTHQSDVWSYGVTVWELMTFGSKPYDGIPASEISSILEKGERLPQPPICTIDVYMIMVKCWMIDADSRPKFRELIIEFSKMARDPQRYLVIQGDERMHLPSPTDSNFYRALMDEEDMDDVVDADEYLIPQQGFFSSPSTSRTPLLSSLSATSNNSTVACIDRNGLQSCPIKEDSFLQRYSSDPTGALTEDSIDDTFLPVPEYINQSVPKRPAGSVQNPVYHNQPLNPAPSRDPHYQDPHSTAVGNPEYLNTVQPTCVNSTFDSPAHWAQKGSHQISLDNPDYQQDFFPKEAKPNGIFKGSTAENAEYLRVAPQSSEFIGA
Chain of JAK1 JH1 catalytic (human) (P23458 whole entry, looked up): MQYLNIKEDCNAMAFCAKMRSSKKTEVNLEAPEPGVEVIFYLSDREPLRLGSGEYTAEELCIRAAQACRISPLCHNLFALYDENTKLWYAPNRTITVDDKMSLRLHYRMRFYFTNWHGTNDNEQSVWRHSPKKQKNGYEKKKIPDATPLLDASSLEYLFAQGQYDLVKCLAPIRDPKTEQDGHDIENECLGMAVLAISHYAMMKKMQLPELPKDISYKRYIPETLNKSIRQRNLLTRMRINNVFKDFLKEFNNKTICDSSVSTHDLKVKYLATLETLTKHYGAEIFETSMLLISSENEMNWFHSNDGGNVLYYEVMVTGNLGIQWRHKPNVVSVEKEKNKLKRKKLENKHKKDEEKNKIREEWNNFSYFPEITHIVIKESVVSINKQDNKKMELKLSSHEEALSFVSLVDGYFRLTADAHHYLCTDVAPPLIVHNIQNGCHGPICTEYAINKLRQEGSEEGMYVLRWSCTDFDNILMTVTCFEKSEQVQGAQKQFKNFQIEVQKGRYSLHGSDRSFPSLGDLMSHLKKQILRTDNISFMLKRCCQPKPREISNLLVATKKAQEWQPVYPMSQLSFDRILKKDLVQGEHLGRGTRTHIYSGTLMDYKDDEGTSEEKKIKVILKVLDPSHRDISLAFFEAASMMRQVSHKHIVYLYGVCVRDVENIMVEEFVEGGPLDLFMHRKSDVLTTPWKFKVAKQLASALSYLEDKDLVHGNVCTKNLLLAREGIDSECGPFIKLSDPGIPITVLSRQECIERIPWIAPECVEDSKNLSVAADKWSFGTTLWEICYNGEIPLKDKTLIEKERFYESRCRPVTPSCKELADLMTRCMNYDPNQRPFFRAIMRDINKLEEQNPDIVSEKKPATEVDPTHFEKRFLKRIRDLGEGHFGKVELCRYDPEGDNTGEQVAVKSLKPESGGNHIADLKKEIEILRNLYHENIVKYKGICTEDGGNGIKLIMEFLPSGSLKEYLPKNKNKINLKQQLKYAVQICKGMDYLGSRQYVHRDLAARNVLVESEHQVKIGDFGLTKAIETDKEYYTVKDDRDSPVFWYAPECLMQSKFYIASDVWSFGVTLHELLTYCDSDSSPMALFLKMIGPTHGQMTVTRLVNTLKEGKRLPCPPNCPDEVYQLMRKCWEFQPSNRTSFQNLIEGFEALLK
Chain of CSNK1G3 (human) (Q9Y6M4 whole entry, looked up): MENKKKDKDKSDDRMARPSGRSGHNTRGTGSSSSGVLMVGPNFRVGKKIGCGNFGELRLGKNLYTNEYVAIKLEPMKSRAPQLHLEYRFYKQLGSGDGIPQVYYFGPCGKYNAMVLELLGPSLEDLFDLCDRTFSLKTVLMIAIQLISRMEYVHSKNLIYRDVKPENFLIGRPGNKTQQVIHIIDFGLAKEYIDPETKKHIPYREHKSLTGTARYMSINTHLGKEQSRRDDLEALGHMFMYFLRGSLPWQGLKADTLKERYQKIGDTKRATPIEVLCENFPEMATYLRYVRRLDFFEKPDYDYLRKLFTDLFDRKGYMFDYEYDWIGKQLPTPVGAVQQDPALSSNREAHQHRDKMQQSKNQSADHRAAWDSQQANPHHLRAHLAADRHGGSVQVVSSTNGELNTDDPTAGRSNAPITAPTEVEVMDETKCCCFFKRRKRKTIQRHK

Work on O=C1Nc2ccccc2/C1=C\c1c(Cl)[nH]c2ccccc12 yielded a residual activity [1] of 96.6%, a residual activity [2] of 103% and a residual activity [3] of 93.5%. It also gave a residual activity [4] of 78.5%, a residual activity [5] of 108% and a residual activity [6] of 109%. For the same molecule, the residual activity [7] was 89.3%, the residual activity [8] was 103% and the residual activity [9] was 92.5% and 93.6%. The residual activity [10] was 109%, the residual activity [11] was 103% and the residual activity [12] was 95.1%. It also gave a residual activity [13] of 105%, a residual activity [14] of 106% and a residual activity [15] of 102%. For the same molecule, the residual activity [16] was 89.2%, the residual activity [17] was 104% and the residual activity [18] was 97.7%. It also gave a residual activity [19] of 93.7%, a residual activity [20] of 99.4% and a residual activity [21] of 105%. For the same molecule, the residual activity [22] was 81.1%, the residual activity [23] was 97.5% and the residual activity [24] was 92.8%. It also gave a residual activity [25] of 95.7%, a residual activity [26] of 106% and a residual activity [27] of 100%. For the same molecule, the residual activity [28] was 102%, the residual activity [29] was 93.7% and the residual activity [30] was 95.2%. It also gave a residual activity [31] of 94.1%, a residual activity [32] of 94.3% and a residual activity [33] of 94.6%.

Work on Nc1nc(Nc2ccc(S(N)(=O)=O)cc2)nn1C(=S)Nc1c(F)cccc1F yielded a residual activity [1] of 4.86%, a residual activity [2] of 60.4% and a residual activity [3] of 78.8%. For the same molecule, the residual activity [4] was 41.6%, the residual activity [5] was 9.5% and the residual activity [6] was 78.9%. For the same molecule, the residual activity [7] was 91.8%, the residual activity [8] was 83.7% and the residual activity [9] was 85.1% and 91.3%. The residual activity [10] was 1.68%, the residual activity [11] was 98.5% and the residual activity [12] was 11.5%. It also gave a residual activity [13] of 5.34%, a residual activity [34] of 87.2% and a residual activity [14] of 2.33%. The residual activity [16] was 93%, the residual activity [35] was 129% and the residual activity [17] was 61%. For the same molecule, the residual activity [18] was 8.18%, the residual activity [19] was 86.5% and the residual activity [20] was 29.8%. For the same molecule, the residual activity [21] was 1.92%, the residual activity [22] was 2.08% and the residual activity [24] was 20.8%. For the same molecule, the residual activity [25] was 17.8%, the residual activity [26] was 9.73% and the residual activity [27] was 11.3%. For the same molecule, the residual activity [28] was 45.6%, the residual activity [30] was 4.96% and the residual activity [31] was -0.912%. It also gave a residual activity [32] of 81.9% and a residual activity [33] of 9.7%.

For O=c1cc(-c2cccc3c2Sc2ccccc2S3)oc(N2CCOCC2)c1, the residual activity [1] was 105%, the residual activity [2] was 104% and the residual activity [3] was 84%. For the same molecule, the residual activity [4] was 106%, the residual activity [5] was 106% and the residual activity [6] was 118%. For the same molecule, the residual activity [7] was 101%, the residual activity [8] was 102% and the residual activity [9] was 102% and 103%. It also gave a residual activity [10] of 106%, a residual activity [11] of 110% and a residual activity [12] of 109%. For the same molecule, the residual activity [13] was 97.6%, the residual activity [14] was 100% and the residual activity [15] was 94.9%. For the same molecule, the residual activity [16] was 96.9%, the residual activity [17] was 96.6% and the residual activity [18] was 99.6%. It also gave a residual activity [19] of 98.7%, a residual activity [20] of 105% and a residual activity [21] of 101%. It also gave a residual activity [22] of 81.4%, a residual activity [23] of 107% and a residual activity [24] of 87.9%. It also gave a residual activity [25] of 93.4%, a residual activity [26] of 109% and a residual activity [27] of 107%. The residual activity [28] was 102%, the residual activity [29] was 109% and the residual activity [30] was 99.5%. It also gave a residual activity [31] of 101%, a residual activity [32] of 96% and a residual activity [33] of 94.4%.

Molecule O=C(NC(NC(=S)Nc1ccc(F)c([N+](=O)[O-])c1)C(Cl)(Cl)Cl)C(c1ccccc1)c1ccccc1 (stereo unspecified) has a residual activity [1] of 106%, a residual activity [2] of 102% and a residual activity [3] of 82.1%. The residual activity [4] was 96.1%, the residual activity [5] was 104% and the residual activity [6] was 120%. For the same molecule, the residual activity [7] was 104%, the residual activity [8] was 98% and the residual activity [9] was 100% and 109%. It also gave a residual activity [10] of 99.5%, a residual activity [11] of 104% and a residual activity [12] of 109%. It also gave a residual activity [13] of 105%, a residual activity [14] of 104% and a residual activity [15] of 94.1%. It also gave a residual activity [16] of 99.8%, a residual activity [17] of 94.9% and a residual activity [18] of 96.2%. The residual activity [19] was 93.7%, the residual activity [20] was 108% and the residual activity [21] was 105%. For the same molecule, the residual activity [22] was 101%, the residual activity [23] was 108% and the residual activity [24] was 87.7%. The residual activity [25] was 100%, the residual activity [26] was 108% and the residual activity [27] was 104%. For the same molecule, the residual activity [28] was 105%, the residual activity [29] was 100% and the residual activity [30] was 101%. The residual activity [31] was 105%, the residual activity [32] was 97% and the residual activity [33] was 92.8%.
